Data: patent US20060104969A1, “Compositions and methods for enhancing structural and functional nervous system reorganization and recovery” (Massachusetts Institute of Technology, priority 2004, published 2006)

What was measured:
axon growth = conditions: cited from earlier work
[1] = tested on: dendritic spines of layer V pyramidal neurons in visual cortex slices; experiment: Spine motility in acute visual cortex slices before and after enzyme application (two-photon imaging); format: cell-based, mice; conditions: p28 non-deprived slices; 45 minute enzyme application; tPA 0.5 μg/mL without exogenous plasminogen, plasmin 0.2 U/mL; p<0.0001
Procedure: Two photon imaging. Mice were prepared for in vivo imaging and imaged as described previously (Majewska and Sur, 2003). Briefly, primary visual cortex was identified using stereotaxic coordinates and either a small craniotomy was drilled in this area, or the skull was thinned without making a craniotomy. Imaging was performed with a custo m-made two-photon microscope consisting of a Ti:S laser (Tsunami, Spectra-physics, Menlo Park, Calif.) pumped by a 10W solid state source (Millennia, Spectra-physics) coupled to a modified Fluoview confocal scanhead (Olympus, Melville, N.Y.). Superficial dendrites were initially identified with wide-field epi-fluorescence illumination, and were subsequently imaged using a 60×, 0.9 N.A. lens with digital zoom (5-10×). Volumetric z-stacks were typically collected with a 800×600 acquisition window with 0.5-1 μm z-steps every five minutes over two hours. […]
Z-stack images were exported to MATLAB (Mathworks, Natick, Mass.) and processed using custom algorithms. Spine motility was analyzed on two-dimensional projections in ImageJ (NIH, Bethesda, Md.), where motility was defined as the average change in spine length per unit time (Lendvai et al., 2000; Majewska and Sur, 2003). […]

[2] = tested on: rats with spinal cord injury (SCI); experiment: Recovery of locomotor function (BBB scale) after T10 contusive spinal cord injury; format: in vivo, Sprague-Dawley rats
Text: FIGS. 8A and 8B show the effect of tPA on recovery of locomotor function graded on the BBB scale (y-axis; Basso et al., 1995 J. Neurotrauma) that ranges from 21 in normal rats to 0 in rats with complete hind limb paralysis. FIG. 8A presents a time course in which data points represent the group average±SEM (n=3/group) scored at different time points post T10 contusive injury. […] The dip of the curves starting at week 7 in both of the experimental groups was caused by the intra-cerebral cortex injections of axonal tract tracer BDA which was done at week 6 after injury. FIG. 8B presents a bar graph showing results of a second experiment in which data points represent the group average±SEM (n=7/group).
In a first set of experiments, 6 female Sprague-Dawley rats were anesthetized and spinal cord injury (SCI) was induced at TIO by using the New York University impactor with a 10 gm weight and a 12.5 mm weight drop. Behavioral tests were conducted on the first post-operative day and then weekly. The BBB (Basso, Beattie, Bresnahan) behavioral test was used to examine hind limb reflexes as well as coordinated use of the hind limbs (Basso et al., 1995; Basso, et al., 1996). This “BBB” scale has been adopted by the Multicenter Animal Spinal Cord Injury Study and by other workers in the field. […]

[3] = tested on: spinal cord injury epicenter tissue; experiment: Histological analysis of the spinal cord injury epicenter (hematoxylin and eosin, solvent blue); format: in vivo, Sprague-Dawley rats
Text: FIG. 9 presents micrographs showing the overall microscopic difference in injury epicenter pathology between rats receiving tPA or vehicle in the area of residual total tissue (hematoxylin and eosin stain).
FIG. 10 presents micrographs showing the overall difference between rats receiving tPA (left panel) or vehicle (right panel) in the typical cross-sectional area of residual total white matter (WM) at the injury epicenter (e.g. WM+hypomyelinated WM). […] In contrast, SB stain in the vehicle treated spinal cord was much weaker, indicating much lower quantity presence of myelin in the tissue.
Sections were stained with solvent blue [SB]/hematoxylin and eosin as described in Teng and Wrathall, 1997.
Three days post-operatively, a second operation was conducted at T8-T9 for a bolus micro-injection of 10 μg of tPA (human two-chain tissue plasminogen activator; American Diagnostica, Inc.) reconstituted from lyophilized powder to 10 μg/10 μL) into three of the six rats. Following the bolus injection, an osmotic minipump (Alzet Model 2002: 14 day pump) (Durect Corp., Cupertino, Calif.) loaded with tPA (200 μL total volume, delivering 0.5 μL/hour, 10 μg tPA/day) was implanted at the side of injury and delivered tPA for 10 consecutive days. […]

[4] = tPA activity in the solution remaining in implanted minipumps; format: physicochemical; conditions: rat body temperature; delivered from a minipump reservoir
Procedure: Three days post-operatively, a second operation was conducted at T8-T9 for a bolus micro-injection of 10 μg of tPA (human two-chain tissue plasminogen activator; American Diagnostica, Inc.) reconstituted from lyophilized powder to 10 μg/10 μL) into three of the six rats. Following the bolus injection, an osmotic minipump (Alzet Model 2002: 14 day pump) (Durect Corp., Cupertino, Calif.) loaded with tPA (200 μL total volume, delivering 0.5 μL/hour, 10 μg tPA/day) was implanted at the side of injury and delivered tPA for 10 consecutive days. At the 6th post-operative week, BDA and Fluorogold injections were made in cortex to assess the extent of corticospinal tract regrowth and reconnection, and at the 10th post-operative week, animals were perfused and their spinal cords were removed for histological analysis. Implanted minipumps were saved for analysis of tPA activity in the remaining solution.

[5] = tested on: rats with middle cerebral artery occlusion (MCAO); experiment: Forelimb inhibition behavioral test after middle cerebral artery occlusion (MCAO); format: in vivo; conditions: intraventricular infusion 2 or 10 μg/day for 7 days, started 2 days after MCAO
Procedure: Twenty rats were trained on a battery of behavioral tasks until they achieved an asymptotic level of competence. Rats then received occlusion of the middle cerebral artery (MCAO) according to standard procedures. […] At the time of MCAO surgery, 10 of the 20 rats were also implanted with an osmotic mini-pump (Alzet model 2001, 7 day pump with […] and 1.0 μL/hour infusion) for intraventricular infusion contralateral to the site of the MCAO. The mini-pumps were filled with human two-chain tissue plasminogen activator (tPA; American Diagnostica, Inc.) at two different concentrations: 5 animals received 2 μg/day and 5 animals received 10 μg/day. tPA treatment was initiated 2 days following MCAO and was maintained for 7 days. Control and tPA-treated rats were subsequently tested weekly for behavioral recovery.
Initial results regarding one of the behavioral tests, forelimb inhibition, are striking. Normal animals rarely use their forelimbs while swimming across a test basin, a phenomenon referred to as “inhibition”. After stroke, this inhibition is reduced, so that forelimb use increases. […] On other tests, there was less difference between tPA treated animals and controls though this and other data is still being analyzed.

[6] = tested on: dendritic spines in visual cortex slices contralateral to the deprived eye; experiment: Spine motility in visual cortex slices after monocular deprivation, followed by plasmin application (occlusion test); format: cell-based, mice
Procedure: Mice (C57/B16) expressing GFP (strain GFP-M) or YFP (strain YFP-H) in a subset of their cortical neurons (principally layer V pyramidal neurons) (Feng, G., et al., 2000) were anesthetized at postnatal days 26 or 40 and maintained in deep anesthesia using isoflurane. Monocular deprivation was performed by scoring the eyelids and then sealing them shut with tissue adhesive (Vetbond, 3M, St. Paul, Minn.). Mice were checked over the next 2-3 days to ensure that the eye remained closed. A total of 18 mice were used in the in vivo experiments (6 control, 4 deprived at p28; 4 control, 4 deprived at p42) and 24 mice were used in the slice experiments (15 control, 9 deprived).
Z-stack images were exported to MATLAB (Mathworks, Natick, Mass.) and processed using custom algorithms. Spine motility was analyzed on two-dimensional projections in ImageJ (NIH, Bethesda, Md.), where motility was defined as the average change in spine length per unit time (Lendvai et al., 2000; Majewska and Sur, 2003). Spine turnover was rarely observed in single imaging sessions. All values are presented as mean±standard error of the mean and all statistical analyses were performed using either a parametric t-test statistic for populations of monocularly deprived and control spines, or a parametric paired t-test statistic for enzymatic treatments.
Slice preparation and enzyme application. […]

Row | Molecule | effective dose for influencing axon growth (axon growth) | increase in spine motility [1] [%] | final score on the BBB test ([2]; after 10 weeks of recovery, first experiment, n=3/group, 10 μg bolus then 10 μg tPA/day for 10 days by minipump, baseline 21) | BBB scores relative to control animals ([2]; second experiment, n=7/group, tPA delivered for 7 days) | appearance of the contusion site, hematoxylin and eosin staining ([3]; in comparison to control) | integrity of residual white matter at the injury epicenter, solvent blue stain ([3]; versus vehicle) | time for which tPA maintains enzymatic activity [4] | forelimb use while swimming (forelimb inhibition) [5] | spine motility after additional plasmin application, superficial layers ([6]; regions where motility is already upregulated, n=88, p>0.5) | spine motility after plasmin treatment, middle regions ([6]; regions where motility is unchanged by deprivation, n=60, p<0.0001)
1 | O=c1onc2cnc3ccccc3n12 [ODQ] | about 10 uM | – | – | – | – | – | – | – | – | –
2 | tissue plasminogen activator [tPA] | – | 17 | ~9 | improved BBB scores | remarkably clean | significantly protected the integrity of the residual white matter | up to 10 days | much less than control animals | – | –
3 | plasmin (protein, UniProt P00747 20-580; P00747 581-810, looked up, Plasmin, serine protease whose major substrate is fibrin (Sigma)) Plasmin heavy chain A: EPLDDYVNTQGASLFSVTKKQLGAGSIEECAAKCEEDEEFTCRAFQYHSKEQQCVIMAENRKSSIIIRMRDVVLFEKKVYLSECKTGNGKNYRGTMSKTKNGITCQKWSSTSPHRPRFSPATHPSEGLEENYCRNPDNDPQGPWCYTTDPEKRYDYCDILECEEECMHCSGENYDGKISKTMSGLECQAWDSQSPHAHGYIPSKFPNKNLKKNYCRNPDRELRPWCFTTDPNKRWELCDIPRCTTPPPSSGPTYQCLKGTGENYRGNVAVTVSGHTCQHWSAQTPHTHNRTPENFPCKNLDENYCRNPDGKRAPWCHTTNSQVRWEYCKIPSCDSSPVSTEQLAPTAPPELTPVVQDCYHGDGQSYRGTSSTTTTGKKCQSWSSMTPHRHQKTPENYPNAGLTMNYCRNPDADKGPWCFTTDPSVRWEYCNLKKCSGTEASVVAPPPVVLLPDVETPSEEDCMFGNGKGYRGKRATTVTGTPCQDWAAQEPHRHSIFTPETNPRAGLEKNYCRNPDGDVGGPWCYTTNPRKLYDYCDVPQCAAPSFDCGKPQVEPKKCPGR Plasmin light chain B: VVGGCVAHPHSWPWQVSLRTRFGMHFCGGTLISPEWVLTAAHCLEKSPRPSSYKVILGAHQEVNLEPHVQEIEVSRLFLEPTRKDIALLKLSSPAVITDKVIPACLPSPNYVVADRTECFITGWGETQGTFGAGLLKEAQLPVIENKVCNRYEFLNGRVQSTELCAGHLAGGTDSCQGDSGGPLVCFEKDKYILQGVTSWGLGCARPNKPGVYVRVSRFVTWIEGVMRNN | – | 21 | – | – | – | – | – | – | unaffected | significantly increased
